This is an account of results in patent publication US20070111956A1, “Remedy for sarcoidosis and method of treating the same” (Japan Science and Technology Agency, priority 2003, published 2007).

The test system of series [1] is mice immunized three times with P. acnes. Put plainly: Antibiotic treatment in the mouse pulmonary granuloma (sarcoidosis) model: BAL cell counts and histology. Type of series: in vivo. Particulars: for decrease of the total number of BAL leukocytes (improved by): percentage in comparison to the control (PBS) group set at 100; for number of CD4+ BAL cells decreased by: two weeks after the third immunization, antibiotics begun before immunization, FIG. 6b. On the procedure:
Female C57BL/6J mice of 5 to 7 weeks of age were obtained from CLEA Japan (Shizuoka, Japan) or Japan SLC, Inc. (Tokyo, Japan), and kept under specific pathogen-free (SPF) conditions in the animal facility of the Department of Molecular Preventive Medicine, Graduated School of Medicine, the University of Tokyo. All animal experiments were conducted in accordance with the guidelines of the University of Tokyo.
P. acnes-sensitized CD4^+ T cells were isolated from groins of normal mice and mice immunized three times. Immunization was conducted by subcutaneous injection of 400 μg of heat-killed P. acnes (ATCC11828, American Type Culture Collection, Manassas, Va.) and Freund's complete adjuvant (Difco, Detroit, Mich.) into the footpad at 2-week intervals. CD4^+ cells were isolated with the use of MACS system (Miltenyi Biotech, Bergisch Gladbach, Germany) according to manufacturer's instructions. The purity of CD4^+ cell populations was 94% or higher, as confirmed by immunostaining flow cytometry. The isolated CD4^+ cells (2×10^6 cells/PBS 200 μl) were injected into the tail vein of normal mice, and histological analysis of the lungs was conducted two weeks after the injection.
BAL cells were collected by five injections of 0.8 ml of sterile PBS containing 2% FCS (Sigma, St. Louis, Mo.) and 2 mM EDTA. The total number of BAL leukocytes was counted with a hemocytometer. Before the analysis with EPICS Elite instrument (Beckman Coulter, Miami, Fla.), BAL cells were preincubated with rat anti-mouse CD16/CD32 (clone; 2.4G2) mAb to block FcR-mediated binding, and then incubated for […] at 4° C. with FITC-conjugated anti-CD4 (H129.19) mAb and PE-conjugated anti-CD8a (53-6.7) mAb, both from BD Pharmingen.
Minocycline hydrochloride (MINO) (Wyeth Ledele, Tokyo, Japan) and clindamycin (CLDM) (Pharmacia, Tokyo, Japan) were used. On day one, 133 μg of MINO and 1.6 mg of CLDM were administered intratrancheally (i.t.). Subsequently, the same dose of each antibiotic was injected intraperitoneally (i.p.) everyday for one week before immunization, then intraperitoneal injection was conducted three times per week. During the experiment, mice were given water containing each antibiotic at the same dose as mentioned above. Similarly, ampicillin (ABPC), cefazolin sodium (CEZ), gentamicin sulfate (GM), fosfomycin (FOM), clarithromycin (CAM) were used and single dose of these antibiotics was set by calculating the maximum amount for regular use by adults based on their body weight.

The nature of series [2]: Examination for nonspecific immunosuppression (ear swelling, spleen index). Particulars: in comparison to PBS control; FIG. 9. Type of series: in vivo, mouse.
In series [3] the test system is indigenous P. acnes in the mouse lung. Description: PCR detection of indigenous P. acnes in the mouse lung after antibiotics. In kind it is in vivo, Propionibacterium acnes. Particulars: PBS as a control; FIG. 8. On the procedure: Samples of 1 μg of total RNA were isolated from the lungs, and regional lymph nodes samples of the lung, the liver, the skin and the pancreas of SPF mice using Trizol (Invitrogen, Groningen, the Netherlands) according to the manufacturer's instructions. Then, RNA samples were reverse transcribed into cDNA, and amplified (J. Exp. Med. 193, 35-49, 2001; J. Clin. Invest. 102, 1933-1941, 1998). PCR products of 16s ribosomal RNA of P. acnes were electrophoresed on 2.5% agarose gel. The bands visualized by ethidium bromide staining were expected size for each mRNA product. Oligonucleotide primers for P. acnes were designed as described previously (J. Clin. Microbiol. 40, 198-204, 2002): forward, 5′-[…]-3′ (SEQ ID NO: 1); reverse, 5′-TTCCGACGCGATCAACCA-3′ (SEQ ID NO: 2). Contamination of P. acnes during the experiment was checked by buffer control. As primers for GAPDH as an internal standard, previously described ones were used (J. Exp. Med. 193, 35-49, 2001). PCR conditions: heated at 95° C. for 5 min, followed by 40 cycles of 95° C. for 30 sec, 58° C. for 60 sec, 72° C. for 60 sec, and finally heated at 72° C. for 10 min.
Minocycline hydrochloride (MINO) (Wyeth Ledele, Tokyo, Japan) and clindamycin (CLDM) (Pharmacia, Tokyo, Japan) were used. On day one, 133 μg of MINO and 1.6 mg of CLDM were administered intratrancheally (i.t.). […]

Where a name gives a salt, the structure may show the parent alone.

As for `CCC[C@@H]1C[C@@H](C(=O)N[C@@H]([C@H]2O[C@H](SC)[C@H](O)[C@@H](O)[C@H]2O)[C@H](C)Cl)N(C)C1` [CLDM, clindamycin], the “decrease of the total number of BAL leukocytes (improved by)” value in series [1] (FIG. 7) is listed as 42.1%. For the same compound, the “decrease of the total number of BAL leukocytes (improved by), group administered for a short period” value in series [1] (FIG. 7, short: antibiotics initiated one month after treatment of the model (at the last immunization), versus PBS set at 100) is given as 74.3%. Besides, the “number of CD4+ BAL cells decreased by” value in series [1] amounted to 42.1%. Moreover, in series [2], the “size of ear swelling” value is given as “no marked differences” and the spleen index result is recorded as “no marked differences”.

Consider `CC1(C)S[C@@H]2[C@H](NC(=O)[C@H](N)c3ccccc3)C(=O)N2[C@H]1C(=O)O` [ABPC, ampicillin], for which the “decrease of the total number of BAL leukocytes (improved by)” value in series [1] (FIG. 7) is listed as 46.1%.

In the case of gentamicin sulfate [GM], the “indigenous P. acnes in the mouse lung by PCR” value in series [3] is on record as “did not decrease so much”. The “effect on BAL cells (FIG. 7), in words” value in series [1] (FIG. 7, in comparison to the control (PBS) group) was “no effect”.

Regarding `CN(C)c1ccc(O)c2c1C[C@H]1C[C@H]3[C@H](N(C)C)C(O)=C(C(N)=O)C(=O)[C@@]3(O)C(O)=C1C2=O` [MINO, minocycline hydrochloride], the “decrease of the total number of BAL leukocytes (improved by)” value in series [1] (FIG. 7) came out at 53.5%. In addition, the “number of CD4+ BAL cells decreased by” value in series [1] was 53.5%. Further, in series [2], the “size of ear swelling” value is given as “no marked differences” and the spleen index entry is listed as “no marked differences”.

With `CC[C@H]1OC(=O)[C@H](C)[C@@H](O[C@H]2C[C@@](C)(OC)[C@@H](O)[C@H](C)O2)[C@H](C)[C@@H](O[C@@H]2O[C@H](C)C[C@H](N(C)C)[C@H]2O)[C@](C)(OC)C[C@@H](C)C(=O)[C@H](C)[C@@H](O)[C@]1(C)O` [CAM, clarithromycin], in series [1] (FIG. 7), the “decrease of the total number of BAL leukocytes (improved by)” value stood at 48.3%.
